Experimental findings from patent US20090285773A1, “Hepatitis C Virus Inhibitors” (Bristol-Myers Squibb Company, priority 2008, published 2009) are described below.

SMILES strings stand for the structures. pEC50, pIC50: −log10 of the molar value.

For one experiment, the target named is T1, NS3/4A protease complex (UniProt P27958).
T1 construct: fused on or other part: three-lysine solubilising tail at the C-terminus of NS4A; probably a His tag from pET21b (Ni-NTA purification)
Description: HCV NS3/4A protease complex enzyme assay (strain not stated). It counts as biochemical. Conditions: Table 2; strain and unit inferred. The text has this:
The purpose of this in vitro assay was to measure the inhibition of HCV NS3 protease complexes, derived from the BMS strain, H77 strain or J4L6S strain, as described above, by compounds of the present disclosure. This assay provides an indication of how effective compounds of the present disclosure would be in inhibiting HCV NS3 proteolytic activity.
In order to monitor HCV NS3/4A protease activity, an NS3/4A peptide substrate was used. The substrate was RET S1 (Resonance Energy Transfer Depsipeptide Substrate; AnaSpec, Inc. cat #22991)(FRET peptide), described by Taliani et al. in Anal. Biochem. 240(2):60-67 (1996). The sequence of this peptide is loosely based on the NS4A/NS4B natural cleavage site for the HCV NS3 protease except there is an ester linkage rather than an amide bond at the cleavage site. The peptide also contains a fluorescence donor, EDANS, near one end of the peptide and an acceptor, DABCYL, near the other end. The fluorescence of the peptide is quenched by […] resonance energy transfer (RET) between the donor and the acceptor, but as the NS3 protease cleaves the peptide the products are released from RET quenching and the fluorescence of the donor becomes apparent.
The peptide substrate was incubated with one of the three recombinant NS3/4A protease complexes, in the absence or presence of a compound of the present disclosure. The inhibitory effects of a compound were determined by monitoring the formation of fluorescent reaction product in real time using a Cytofluor Series 4000.
Assay buffer: 50 mM HEPES, pH 7.5; 0.15 M NaCl; 0.1% Triton; 15% Glycerol; 10 mM βME. Substrate: 2 μM final concentration (from a 2 mM stock solution in DMSO stored at −20° C.). HCV NS3/4A protease type 1a (1b), 2-3 nM final concentration (from a 5 μM stock solution in 25 mM HEPES, pH 7.5, 20% glycerol, 300 mM NaCl, 0.2% Triton-X100, 10 mM βME). For compounds with potencies approaching the assay limit, the assay was made more sensitive by adding 50 μg/ml Bovine Serum Albumin (Sigma) to the assay buffer and reducing the end protease concentration to 300 pM.
The assay was performed in a 96-well polystyrene black plate from Falcon. Each well contained 25 μl NS3/4A protease complex in assay buffer, 50 μl of a compound of the present disclosure in 10% DMSO/assay buffer and 25 μl substrate in assay buffer. A control (no compound) was also prepared on the same assay plate. The enzyme complex was mixed with compound or control solution for 1 min before initiating the enzymatic reaction by the addition of substrate. The assay plate was read immediately using the Cytofluor Series 4000 (Perspective Biosystems). The instrument was set to read an emission of […] at 25° C. Reactions were generally followed for approximately 15 min.
The percent inhibition was calculated with the following equation: […]
where δF is the change in fluorescence over the linear range of the curve. A non-linear curve fit was applied to the inhibition-concentration data, and the 50% effective concentration (IC50) was calculated by the use of Excel XLfit software using the equation, y=A+((B−A)/(1+((C/x)̂D))).

Experiment [1] deals with HCV replicon (strain 1b) in HUH-7 cells. Description: HCV replicon FRET assay. It counts as cell-based. As to conditions: Hepatitis C virus, Huh-7; Table 2; replicon assay variant and unit inferred; read-out: EC50. The text has this:
An HCV replicon whole cell system was established as described by Lohmann V, Korner F, Koch J, Herian U, Theilmann L, Bartenschlager R., Science 285(5424): 110-3 (1999). This system enabled us to evaluate the effects of our HCV Protease compounds on HCV RNA replication. Briefly, using the HCV strain 1b sequence described in the Lohmann paper (Assession number:AJ238799), an HCV cDNA was synthesized by Operon Technologies, Inc. (Alameda, Calif.), and the full-length replicon was then assembled in plasmid pGem9zf(+) (Promega, Madison, Wis.) using standard molecular biology techniques. The replicon consists of (i) the HCV 5′ UTR fused to the first 12 amino acids of the capsid protein, (ii) the neomycin phosphotransferase gene (neo), (iii) the IRES from encephalomyocarditis virus (EMCV), and (iv) HCV NS3 to NS5B genes and the HCV 3′ UTR. Plasmid DNAs were linearized with ScaI and RNA transcripts were synthesized in vitro using the T7 MegaScript transcription kit (Ambion, Austin, Tex.) according to manufacturer's directions. In vitro transcripts of the cDNA were transfected into the human hepatoma cell line, HUH-7. […] Resulting cell lines were characterized for positive and negative strand RNA production and protein production over time.
The HCV replicon FRET assay was developed to monitor the inhibitory effects of compounds described in the disclosure on HCV viral replication. HUH-7 cells, constitutively expressing the HCV replicon, were grown in Dulbecco's Modified Eagle Media (DMEM) (Gibco-BRL) containing 10% Fetal calf serum (FCS) (Sigma) and 1 mg/ml G418 (Gibco-BRL). Cells were seeded the night before (1.5×10^4 cells/well) in 96-well tissue-culture sterile plates. Compound and no compound controls were prepared in DMEM containing 4% FCS, 1:100 Penicillin/Streptomysin (Gibco-BRL), 1:100 L-glutamine and 5% DMSO in the dilution plate (0.5% DMSO final concentration in the assay). Compound/DMSO mixes were added to the cells and incubated for 4 days at 37° C. After 4 days, cells were first assessed for cytotoxicity using alamar Blue (Trek Diagnotstic Systems) for a CC50 reading. The toxicity of compound (CC50) was determined by adding 1/10th volume of alamar Blue to the media incubating the cells. After 4 h, the fluorescence signal from each well was read, with an excitation wavelength at 530 nm and an emission wavelength of 580 nm, using the Cytofluor Series 4000 (Perspective Biosystems). Plates were then rinsed thoroughly with Phosphate-Buffered Saline (PBS) (3 times 150 μl).

T1 sequence (P27958 1027-1657, one chain of several): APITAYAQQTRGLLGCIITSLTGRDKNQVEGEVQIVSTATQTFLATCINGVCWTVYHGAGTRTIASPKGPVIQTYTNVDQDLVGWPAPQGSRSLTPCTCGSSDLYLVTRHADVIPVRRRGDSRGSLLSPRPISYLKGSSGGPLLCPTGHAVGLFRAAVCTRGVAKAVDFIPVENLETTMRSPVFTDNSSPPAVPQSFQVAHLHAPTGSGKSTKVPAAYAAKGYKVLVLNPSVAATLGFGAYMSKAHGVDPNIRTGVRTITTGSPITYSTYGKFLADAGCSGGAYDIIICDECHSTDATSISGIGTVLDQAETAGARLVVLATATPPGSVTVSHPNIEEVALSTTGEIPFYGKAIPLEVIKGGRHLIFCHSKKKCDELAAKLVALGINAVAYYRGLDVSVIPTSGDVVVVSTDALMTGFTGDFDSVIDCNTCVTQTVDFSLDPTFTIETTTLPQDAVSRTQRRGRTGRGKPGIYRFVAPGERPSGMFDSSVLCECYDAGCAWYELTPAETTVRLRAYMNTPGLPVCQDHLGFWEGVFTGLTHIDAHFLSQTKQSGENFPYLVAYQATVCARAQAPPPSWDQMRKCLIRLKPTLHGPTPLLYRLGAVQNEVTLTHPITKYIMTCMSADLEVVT

On to `COc1cnc(O[C@@H]2C[C@H]3C(=O)N[C@]4(C(=O)NS(=O)(=O)C5CC5)C[C@H]4/C=C\CCCCC[C@H](Nc4nc(-c5ccc(OC(F)(F)F)cc5)cs4)C(=O)N3C2)c2cc(Cl)ccc12` [Compound 6], for which the pIC50 on NS3/4A protease complex is 8.70. The negative-log EC50 (pEC50) in experiment [1] is 8.06.

As for `COc1ccc2c(O[C@@H]3C[C@H]4C(=O)N[C@]5(C(=O)NS(=O)(=O)C6CC6)C[C@H]5/C=C\CCCCC[C@H](Nc5nc(-c6ccc(F)cc6F)cs5)C(=O)N4C3)nccc2c1` [Compound 4], the pIC50 against NS3/4A protease complex was 7.96. The negative-log EC50 (pEC50) in experiment [1] is 7.86.

At NS3/4A protease complex, `COc1ccc2c(O[C@@H]3C[C@H]4C(=O)N[C@]5(C(=O)NS(=O)(=O)C6CC6)C[C@H]5/C=C\CCCCC[C@H](Nc5nc(-c6ccc(OC(F)(F)F)cc6)cs5)C(=O)N4C3)nccc2c1` [Compound 3] gave a pIC50 of 8.30. Besides, the pEC50 in experiment [1] is 8.21.

Take `COc1ccc(N[C@H]2CCCCC/C=C\[C@@H]3C[C@@]3(C(=O)NS(=O)(=O)C3CC3)NC(=O)[C@@H]3C[C@@H](Oc4ncc(OC)c5ccc(Cl)cc45)CN3C2=O)cn1` (single isomer, unassigned) [Compound 2]: the pIC50 against NS3/4A protease complex was 8.22. In experiment [1], the negative-log EC50 (pEC50) is 8.04.

In turn, `COc1ccc2c(O[C@@H]3C[C@H]4C(=O)N[C@]5(C(=O)NS(=O)(=O)C6CC6)C[C@H]5/C=C\CCCCC[C@H](Nc5nc(-c6ccccc6)cs5)C(=O)N4C3)nccc2c1` [Compound 5] gave a pIC50 against NS3/4A protease complex of 8.52. The pEC50 in experiment [1] was 8.09.
